According to ChEMBL document CHEMBL6071182, “Design, Biological Characterization, and Discovery of Novel Cyclohexenyl Derivatives as Kinesin KIF18A Inhibitors for the Treatment of Ovarian Cancer” (ACS Med Chem Lett, 2024):
Converted amounts (≈) assume the structure as drawn.

Columns and labels:
[1] = Cmax in Sprague-Dawley rat at 2 mg/kg, po and 1 mg/kg, iv; assay type: ADME, organism-based; conditions: in vivo
[2] = AUClast in Sprague-Dawley rat at 2 mg/kg, po and 1 mg/kg, iv; assay type: ADME, organism-based; conditions: in vivo
[3] = Half life in Sprague-Dawley rat at 2 mg/kg, po and 1 mg/kg, iv; assay type: ADME, organism-based; conditions: in vivo
[4] = Oral bioavailability in Sprague-Dawley rat at 2 mg/kg; assay type: ADME, organism-based; conditions: in vivo
[5] = system: NUGC-3; test: Antiproliferative activity against human NUGC-3 cells assessed as chemiluminescence measured after 4 days incubation by Celltiter Glo assay; conditions: NUGC-3, 96 h
[6] = system: NCI-N87; test: Antiproliferative activity against human NCI-N87 cells assessed as chemiluminescence measured after 4 days incubation by Celltiter Glo assay; conditions: NCI-N87, 96 h
[7] = system: HCC1954; test: Antiproliferative activity against human HCC1954 cells assessed as chemiluminescence measured after 4 days incubation by Celltiter Glo assay; conditions: HCC1954, 96 h
[8] = system: BXPC-3; test: Antiproliferative activity against human BxPC-3 cells assessed as chemiluminescence measured after 4 days incubation by Celltiter Glo assay; conditions: BXPC-3, 96 h
[9] = biological target: T1, Cytochrome P450 3A4 (Homo sapiens, UniProt P08684); test: Inhibition of CYP3A4 (unknown origin) assessed as reduction in midazolam metabolism; assay type: ADME
T1 sequence (P08684 whole entry): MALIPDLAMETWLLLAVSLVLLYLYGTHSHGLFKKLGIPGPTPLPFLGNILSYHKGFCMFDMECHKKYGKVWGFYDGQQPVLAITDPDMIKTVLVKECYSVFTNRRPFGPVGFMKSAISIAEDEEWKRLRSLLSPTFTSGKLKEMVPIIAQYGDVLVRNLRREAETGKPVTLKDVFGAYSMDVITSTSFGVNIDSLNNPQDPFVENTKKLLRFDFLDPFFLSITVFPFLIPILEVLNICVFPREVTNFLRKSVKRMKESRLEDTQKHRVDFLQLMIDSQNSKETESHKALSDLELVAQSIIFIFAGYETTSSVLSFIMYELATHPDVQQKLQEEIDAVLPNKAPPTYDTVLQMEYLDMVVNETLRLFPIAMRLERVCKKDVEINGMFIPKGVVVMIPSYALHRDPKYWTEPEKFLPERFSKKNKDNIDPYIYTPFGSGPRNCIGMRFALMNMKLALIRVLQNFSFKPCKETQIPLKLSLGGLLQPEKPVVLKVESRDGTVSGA

[10] = biological target: T1, Cytochrome P450 3A4; test: Inhibition of CYP3A4 (unknown origin) assessed as reduction in testosterone metabolism; assay type: ADME
[11] = Half life in human liver microsomes; assay type: ADME, Microsome
[12] = Half life in monkey liver microsomes; assay type: ADME, Macaca mulatta, Microsome; conditions: rhesus monkey
[13] = Half life in dog liver microsomes; assay type: ADME, Canis lupus familiaris, Microsome
[14] = Half life in rat liver microsomes; assay type: ADME, Microsome
[15] = Half life in mouse liver microsomes; assay type: ADME, Microsome
[16] = biological target: Voltage-gated inwardly rectifying potassium channel KCNH2 (Homo sapiens, UniProt Q12809); test: Inhibition of hERG; assay type: toxicity
Sequence of Voltage-gated inwardly rectifying potassium channel KCNH2 (Q12809 whole entry): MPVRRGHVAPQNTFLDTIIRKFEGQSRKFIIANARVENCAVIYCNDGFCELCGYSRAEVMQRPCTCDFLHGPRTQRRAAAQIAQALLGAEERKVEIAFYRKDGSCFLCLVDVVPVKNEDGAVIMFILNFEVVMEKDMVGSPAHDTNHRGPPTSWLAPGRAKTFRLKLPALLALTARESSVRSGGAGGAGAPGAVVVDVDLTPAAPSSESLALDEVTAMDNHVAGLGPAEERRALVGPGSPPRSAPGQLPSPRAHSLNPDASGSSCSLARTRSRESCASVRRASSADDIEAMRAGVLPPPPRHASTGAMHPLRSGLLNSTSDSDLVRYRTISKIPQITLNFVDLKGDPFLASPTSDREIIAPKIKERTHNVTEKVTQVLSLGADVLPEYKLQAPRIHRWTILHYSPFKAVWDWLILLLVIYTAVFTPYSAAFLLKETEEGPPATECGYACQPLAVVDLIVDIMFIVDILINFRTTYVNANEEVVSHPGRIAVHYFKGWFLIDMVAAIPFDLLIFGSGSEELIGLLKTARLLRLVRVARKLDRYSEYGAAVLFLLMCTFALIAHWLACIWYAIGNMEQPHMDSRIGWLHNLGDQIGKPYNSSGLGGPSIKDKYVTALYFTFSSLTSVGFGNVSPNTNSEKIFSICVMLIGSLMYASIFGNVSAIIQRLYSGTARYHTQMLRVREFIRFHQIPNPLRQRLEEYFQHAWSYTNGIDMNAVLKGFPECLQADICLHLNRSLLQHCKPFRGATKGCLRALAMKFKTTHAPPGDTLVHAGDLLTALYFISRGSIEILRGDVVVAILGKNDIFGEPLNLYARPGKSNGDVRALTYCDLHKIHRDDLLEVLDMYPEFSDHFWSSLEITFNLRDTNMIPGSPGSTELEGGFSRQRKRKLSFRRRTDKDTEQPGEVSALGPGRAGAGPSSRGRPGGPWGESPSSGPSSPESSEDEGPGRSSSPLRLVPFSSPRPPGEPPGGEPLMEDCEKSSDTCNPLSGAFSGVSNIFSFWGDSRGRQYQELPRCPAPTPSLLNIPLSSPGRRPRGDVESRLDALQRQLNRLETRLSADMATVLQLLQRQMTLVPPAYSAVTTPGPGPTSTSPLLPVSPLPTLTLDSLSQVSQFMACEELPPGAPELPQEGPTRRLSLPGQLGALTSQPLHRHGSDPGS

[17] = Solubility in compound in FassIF; assay type: physicochemical
[18] = Solubility in compound in FessIF; assay type: physicochemical
[19] = Solubility in compound in FassGF; assay type: physicochemical
[20] = Permeability of compound across apical to basolateral side in human Caco-2 cells; assay type: ADME, cell-based; conditions: read-out: permeability
[21] = Permeability of compound across basolateral to apical side in human Caco-2 cells; assay type: ADME, cell-based; conditions: read-out: permeability
[22] = Plasma protein binding in human; assay type: ADME, cell-free; conditions: read-out: PPB (converted)
[23] = Plasma protein binding in monkey; assay type: ADME, cell-free, Macaca mulatta; conditions: rhesus monkey, read-out: PPB (converted)
[24] = Plasma protein binding in dog; assay type: ADME, cell-free, Canis lupus familiaris; conditions: read-out: PPB (converted)
[25] = Plasma protein binding in rat; assay type: ADME, cell-free; conditions: read-out: PPB (converted)
[26] = Plasma protein binding in mouse; assay type: ADME, cell-free; conditions: read-out: PPB (converted)
[27] = Cmax in ICR mouse at 2 mg/kg, po and 1 mg/kg, iv; assay type: ADME, organism-based; conditions: in vivo
[28] = AUC in ICR mouse at 2 mg/kg, po and 1 mg/kg, iv; assay type: ADME, organism-based; conditions: in vivo
[29] = Half life in ICR mouse at 2 mg/kg, po and 1 mg/kg, iv; assay type: ADME, organism-based; conditions: in vivo
[30] = Oral bioavailability in ICR mouse at 2 mg/kg; assay type: ADME, organism-based; conditions: in vivo
[31] = Cmax in Beagle dog at 2 mg/kg, po and 1 mg/kg, iv; assay type: ADME, organism-based, Canis lupus familiaris; conditions: in vivo
[32] = AUC in Beagle dog at 2 mg/kg, po and 1 mg/kg, iv; assay type: ADME, organism-based, Canis lupus familiaris; conditions: in vivo
[33] = Half life in Beagle dog at 2 mg/kg, po and 1 mg/kg, iv; assay type: ADME, organism-based, Canis lupus familiaris; conditions: in vivo
[34] = Oral bioavailability in Beagle dog at 2 mg/kg; assay type: ADME, organism-based, Canis lupus familiaris; conditions: in vivo
[35] = Cmax in Cynomolgus monkey at 2 mg/kg, po and 1 mg/kg, iv; assay type: ADME, organism-based, Macaca fascicularis; conditions: in vivo
[36] = AUC in Cynomolgus monkey at 2 mg/kg, po and 1 mg/kg, iv; assay type: ADME, organism-based, Macaca fascicularis; conditions: in vivo
[37] = Half life in Cynomolgus monkey at 2 mg/kg, po and 1 mg/kg, iv; assay type: ADME, organism-based, Macaca fascicularis; conditions: in vivo
[38] = Oral bioavailability in Cynomolgus monkey at 2 mg/kg; assay type: ADME, organism-based, Macaca fascicularis; conditions: in vivo
[39] = system: OVCAR-3; test: In vivo antiproliferative activity against human OVCAR-3 cells xenografted in nude Balc/c mouse tumor model assessed as tumor growth inhibition at 30 mg/kg, po measured after 21 days; assay type: functional; conditions: OVCAR-3, 504 h, time 21 day, read-out: TGI
[40] = system: OVCAR-3; test: In vivo antiproliferative activity against human OVCAR-3 cells xenografted in po dosed nude Balc/c mouse tumor model assessed as reduction in tumor volume measured after 21 days; assay type: functional, organism-based; conditions: dose 10-20 mg/kg, time 21.0 day, TDE = time-dependent effect
[41] = Toxicity in nude Balc/c mouse xenografted with human OVCAR-3 cells assessed as change in body weight at 10 to 30 mg/kg, po measured after 21 days; assay type: organism-based; conditions: in vivo, 504 h, dose 10-30 mg/kg, time 21 day
[42] = Half life in Balb/c mouse at 10 mg/kg, po; assay type: ADME, organism-based; conditions: in vivo
[43] = Half life in Balb/c mouse at 30 mg/kg, po; assay type: ADME, organism-based; conditions: in vivo
[44] = Cmax in Balb/c mouse at 10 mg/kg, po; assay type: ADME, organism-based; conditions: in vivo
[45] = Cmax in Balb/c mouse at 30 mg/kg, po; assay type: ADME, organism-based; conditions: in vivo
[46] = AUC in Balb/c mouse at 10 mg/kg, po; assay type: ADME, organism-based; conditions: in vivo
[47] = AUC in Balb/c mouse at 30 mg/kg, po; assay type: ADME, organism-based; conditions: in vivo
[48] = cells; conditions: Homo sapiens, OVCAR-3, 96 h
Description: Antiproliferative activity against KIF18A siRNA sensitive human OVCAR-3 cells assessed as decrease in nuclei number measured after 4 days incubation by Hoechst 33342 DNA dye based nuclear count assay (NCA)

Q: What does the source list for `Cc1cc(NC(=O)c2ccc(NS(=O)(=O)CCO)cc2C2=CCC3(CC2)CC3)nc(N2CCC(F)(F)CC2)c1`?
A: Cmax [1]: 552 ng/mL; AUC(0-t) [2]: 5840 ng·h/mL; half-life [3]: 2.7 h; bioavailability [4]: 73%; IC50 [5]: 0.016 µM; IC50 [6]: 8.61 µM; IC50 [7]: 0.014 µM; IC50 [8]: 8.61 µM; IC50 [9]: 22.4 µM; IC50 [10]: 23 µM; half-life [11]: 0.38 h; half-life [12]: 0.203 h; half-life [13]: 2.21 h; half-life [14]: 1.03 h; half-life [15]: 1.47 h; IC50 [16]: > 30 µM; solubility [17]: 18.5 µM (≈ 10.4 µg/mL); solubility [18]: 43.6 µM (≈ 24.4 µg/mL); solubility [19]: 3.3 µM (≈ 1.85 µg/mL); Papp A→B [20]: < 0.01 ×10⁻⁶ cm/s; Papp B→A [21]: 0.49 ×10⁻⁶ cm/s; fraction unbound [22]: 0.0004; fraction unbound [23]: 0.0008; fraction unbound [24]: 0.0007; fraction unbound [25]: 0.0023; fraction unbound [26]: 0.0011; Cmax [27]: 393 ng/mL; AUC [28]: 3340 ng·h/mL; half-life [29]: 4.6 h; bioavailability [30]: 68.2%; Cmax [31]: 1150 ng/mL; AUC [32]: 11500 ng·h/mL; half-life [33]: 7.6 h; bioavailability [34]: 76.9%; Cmax [35]: 478 ng/mL; AUC [36]: 2850 ng·h/mL; half-life [37]: 4.5 h; bioavailability [38]: 40.2%; inhibition in vivo at 30 mg/kg [39]: 113%; Activity [40]: Tde; Activity [41]: Non-Toxic; half-life [42]: 3.38 h; half-life [43]: 6.38 h; Cmax [44]: 2160 ng/mL; Cmax [45]: 4040 ng/mL; AUC [46]: 27700 ng·h/mL; AUC [47]: 54400 ng·h/mL; EC50 [48]: 0.0647 µM
